Measured values reported in the supplement of paper PMC11208160.

test: recombinant barcode read abundance after kanamycin selection (control-corrected) (log10(CPM+1)); higher = more efficient recombination; sequences stand for … in AGTGCAGAGAAAATCGGCCAGTTTTCTCTGCCTGCAGTCCGCATGCCGT…AGATTTATGCAGCGGACTGCCTTTCTCCCAAAGTGATAAACCGGACAGTATCATGGACCGGTTTTCCCGGTAATCCGTATTTGCAAGGTTGGTTTCACT; site = the 11-nt target
Procedure, shortened: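 IS621 bridge RNA target-binding loops were paired with targets in a pooled library tested in E. coli. After co-electroporation with a donor plasmid, cells were plated in two replicates on chloramphenicol/ampicillin LB agar (control) and on chloramphenicol/ampicillin/kanamycin carrying 0.1 mM IPTG. Barcodes at recombinant junctions were counted as counts per million, averaged and control-corrected to give recombination efficiency. Values are log10(CPM+1).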
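Also: IS621 recombinase and bridge RNA in Escherichia coli cells.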

In order of rising “recombinant barcode read abundance (log10)” value:
1. ATGCATCCTTGGGTTCTAACCTGTTGCCT (site AGGCATCCTAG)  0
2. CGTCTCCCTTGGGTTCTAACCTGTTGCCT (site CCTCTGCCTAG)  0.0171
3. CGCCCGCCTTGGGTTCTAACCTGTTGCCT (site TGCCCGCCTAG)  0.0262
4. CCACGGACTTGGGTTCTAACCTGTTGCCT (site CCATGGACTAG)  0.0265
5. GGAACGTCTTGGGTTCTAACCTGTTGCTT (site GGAACCTCTAA)  0.0353
6. CCGTAGTCTTGGGTTCTAACCTGTTGCCT (site CCGTACTCTAG)  0.0425
7. AGTACGCCTTGGGTTCTAACCTGTTGCCT (site AGTACGCCTAG)  0.0474
8. CACAGTCCTTGGGTTCTAACCTGTTGCTA (site AGGGTCGCTAG)  0.049
9. CTAGCCTCTTGGGTTCTAACCTGTTGCAT (site CTATCCTCTAT)  0.0542
10. GTCTCGTCTTGGGTTCTAACCTGTTGCTT (site GTCTCTTCTTA)  0.0559
11. GAGTTGCCTTGGGTTCTAACCTGTTGCGT (site GAGTTTCCTAC)  0.0593
12. CGGCTCACTTGGGTTCTAACCTGTTGCTA (site CGGCACACTAA)  0.0598
13. TCTGGAGCTTGGGTTCTAACCTGTTGCAG (site CCAGGAGCTCT)  0.0636
14. AATTGTCCTTGGGTTCTAACCTGTTGCGT (site AATTGTCCTAT)  0.0639
15. TGGCCTTCTTGGGTTCTAACCTGTTGCCT (site TCGCCTTCTAG)  0.0688
16. CTCGCCACTTGGGTTCTAACCTGTTGCCT (site GAGTTGTCTCC)  0.0691
17. TCGGTGACTTGGGTTCTAACCTGTTGCCT (site GCGGTGACTAG)  0.0708
18. TTCCGAGCTTGGGTTCTAACCTGTTGCGG (site TGTCGAGCTCC)  0.0848
19. TTAGACCCTTGGGTTCTAACCTGTTGCAG (site AGGTCTACTTG)  0.0942
20. AGTCATCCTTGGGTTCTAACCTGTTGCCT (site AGTCATACTAT)  0.0998
21. GTTTGCTCTTGGGTTCTAACCTGTTGCCT (site GTTTGTTCTAG)  0.115
22. ACATGTACTTGGGTTCTAACCTGTTGCAT (site ACATGGACTAT)  0.121
23. ACGCATTCTTGGGTTCTAACCTGTTGCCT (site ACGCACTCTAG)  0.123
24. ATCGTACCTTGGGTTCTAACCTGTTGCTG (site ATCGTACCTCA)  0.123
25. CTGGGTTCTTGGGTTCTAACCTGTTGCCT (site CCGGGTTCTAG)  0.138
26. CCTAGATCTTGGGTTCTAACCTGTTGCCT (site CCTAGACCTAG)  0.141
27. CGGATCCCTTGGGTTCTAACCTGTTGCCT (site CCGATCCCTAG)  0.159
28. GTAACCTCTTGGGTTCTAACCTGTTGCCC (site GTAACCTCTCG)  0.179
29. CAAAGTGCTTGGGTTCTAACCTGTTGCCT (site GAAAGTGCTAG)  0.205
30. TACTATGCTTGGGTTCTAACCTGTTGCCT (site TACTATACTAG)  0.211
31. TTAAATCCTTGGGTTCTAACCTGTTGCCT (site TTAAATCCTAG)  0.219
32. GGAGGGTCTTGGGTTCTAACCTGTTGCTT (site CGAGGGTCTAA)  0.229
33. ATAAGACCTTGGGTTCTAACCTGTTGCCT (site ATGAGAGCTAG)  0.229
34. GCCGCGACTTGGGTTCTAACCTGTTGCCT (site GCCGCGACTAG)  0.236
35. CTAAGAACTTGGGTTCTAACCTGTTGCTT (site CTAAGAACTAA)  0.254
36. GCCGCGACTTGGGTTCTAACCTGTTGCCT (site GCTGCGACTAG)  0.262
37. CACCAAACTTGGGTTCTAACCTGTTGCCT (site CACCAAACTAG)  0.299
38. GATCATCCTTGGGTTCTAACCTGTTGCCT (site GATCATCCTAG)  0.364
39. AAGCATTCTTGGGTTCTAACCTGTTGCCT (site AAGCAATCTAG)  0.379
40. GCGTCCACTTGGGTTCTAACCTGTTGCCT (site GCATCCACTAG)  0.398
41. CTCCGTCCTTGGGTTCTAACCTGTTGCTT (site CTCCGTCCTAA)  0.445
42. CGGCTGACTTGGGTTCTAACCTGTTGCCT (site CGGCTCACTAG)  0.446
43. CGGCGTCCTTGGGTTCTAACCTGTTGCTA (site CGGCGTCCTTA)  0.452
44. CTAAGCGCTTGGGTTCTAACCTGTTGCCT (site AGTCAGACTGT)  0.463
45. ATGCCATCTTGGGTTCTAACCTGTTGCCT (site ATGCCATCTAG)  0.503
46. GTGAGAACTTGGGTTCTAACCTGTTGCCA (site GTGAGAACTTG)  0.588
47. TCCATCCCTTGGGTTCTAACCTGTTGCCT (site TCCATCCCTAG)  0.613
48. CTCTGGACTTGGGTTCTAACCTGTTGCAC (site CTCTGGACTGT)  0.64
49. GGGGCACCTTGGGTTCTAACCTGTTGCTT (site GGGGCACCTAC)  0.68
50. AGAAGATCTTGGGTTCTAACCTGTTGCCT (site AGAAGATCTAG)  0.706
51. TAGTACCCTTGGGTTCTAACCTGTTGCAA (site TAGTACCCTTT)  0.801
52. ATAGGGTCTTGGGTTCTAACCTGTTGCCT (site AAAGGGTCTAG)  1.04
53. TTGAACTCTTGGGTTCTAACCTGTTGCCT (site TTGAACTCTAG)  1.18
54. TAAATCCCTTGGGTTCTAACCTGTTGCGA (site TAAATCCCTTC)  1.22
55. GCAATATCTTGGGTTCTAACCTGTTGCCT (site GCAATATCTAG)  1.26
56. CATAACTCTTGGGTTCTAACCTGTTGCCT (site CATAACTCTAG)  1.3
57. ACTGGGTCTTGGGTTCTAACCTGTTGCTT (site ACTGGGTCTAA)  1.41
58. GCTATGTCTTGGGTTCTAACCTGTTGCCT (site GCTATGTCTAG)  1.42
59. TACCCACCTTGGGTTCTAACCTGTTGCCT (site TACCCACCTAG)  1.47
60. GGATCCTCTTGGGTTCTAACCTGTTGCAT (site GGATCCTCTAT)  1.69
61. GTCACCTCTTGGGTTCTAACCTGTTGCCT (site GTCACCTCTAG)  1.8
62. CTAGGCCCTTGGGTTCTAACCTGTTGCAT (site CTAGGCCCTAC)  1.97
63. GCAAGGTCTTGGGTTCTAACCTGTTGCTA (site GCAAGGTCTTA)  1.98
64. CAGGGGTCTTGGGTTCTAACCTGTTGCAT (site CAGGGGTCTAT)  2.04
65. GCGAGCCCTTGGGTTCTAACCTGTTGCGT (site GCGAGCCCTAC)  2.52
66. ATAGAGTCTTGGGTTCTAACCTGTTGCCT (site ATAGAGTCTAG)  2.64
